Reference: ChEMBL document CHEMBL6120955, “Computationally Driven Discovery of a BCR-ABL1 Kinase Inhibitor with Activity in Multidrug-Resistant Chronic Myeloid Leukemia” (J Med Chem, 2024)
Active and inactive are the calls of the source. The calls are words filed in the database; no cut-off is given here.

Assays:
in vitro = settings: dog, MDCK-MDR1
[1] = Stability in human hepatocytes; type: ADME, cell-based, Hepatocyte
[2] = Stability in mouse hepatocytes; type: ADME, cell-based, Hepatocyte
Homo sapiens = organism: Homo sapiens; assay: Binding affinity to human PDGFR at 1 uM by KINOMEscan analysis
[3] = biological target: Mast/stem cell growth factor receptor Kit (Homo sapiens) (UniProt P10721); assay: Binding affinity to human KIT at 1 uM by KINOMEscan analysis
Chain of Mast/stem cell growth factor receptor Kit (Homo sapiens) (P10721 whole entry): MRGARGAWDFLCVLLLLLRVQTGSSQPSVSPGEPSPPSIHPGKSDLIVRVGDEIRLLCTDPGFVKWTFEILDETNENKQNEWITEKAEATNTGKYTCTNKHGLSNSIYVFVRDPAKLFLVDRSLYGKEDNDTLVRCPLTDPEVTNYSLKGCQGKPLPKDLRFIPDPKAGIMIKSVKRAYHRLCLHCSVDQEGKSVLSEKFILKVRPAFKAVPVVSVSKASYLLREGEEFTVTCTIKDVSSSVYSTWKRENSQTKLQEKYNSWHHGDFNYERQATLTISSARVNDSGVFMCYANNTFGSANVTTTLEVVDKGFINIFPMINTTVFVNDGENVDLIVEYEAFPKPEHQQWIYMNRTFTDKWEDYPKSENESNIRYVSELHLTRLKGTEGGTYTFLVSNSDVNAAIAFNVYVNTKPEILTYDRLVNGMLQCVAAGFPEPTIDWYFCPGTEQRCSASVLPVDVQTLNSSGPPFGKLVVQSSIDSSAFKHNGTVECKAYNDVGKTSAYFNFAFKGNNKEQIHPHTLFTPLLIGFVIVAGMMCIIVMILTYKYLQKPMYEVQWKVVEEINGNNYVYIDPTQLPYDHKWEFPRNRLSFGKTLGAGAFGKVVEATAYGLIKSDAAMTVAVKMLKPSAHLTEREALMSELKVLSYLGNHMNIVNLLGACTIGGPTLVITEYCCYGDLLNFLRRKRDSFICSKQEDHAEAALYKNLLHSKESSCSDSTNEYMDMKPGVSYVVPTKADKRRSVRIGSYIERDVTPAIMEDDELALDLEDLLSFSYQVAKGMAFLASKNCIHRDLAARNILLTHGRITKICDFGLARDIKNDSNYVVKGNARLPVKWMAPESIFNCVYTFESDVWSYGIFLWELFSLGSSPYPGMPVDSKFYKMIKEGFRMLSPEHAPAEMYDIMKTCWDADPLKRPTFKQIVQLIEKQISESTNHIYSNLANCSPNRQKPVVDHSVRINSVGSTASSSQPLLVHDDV

Structure (SMILES)	efflux ratio (in vitro)	Stability [1]	Stability [2]	inhibition (Homo sapiens)	inhibition [3]
COc1cc2ncnc(Nc3cccc(Cl)c3F)c2cc1OCCON1CCN(C)CC1	0.9				
COc1cc2c(Nc3ccc(Cl)c(OC)n3)c(C#N)cnc2cc1OCCON1CCN(C)CC1		Stable	Stable	inactive	inactive
